# Data: PubChem BioAssay (NCI)
#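 Values below derive from 48-hour exposures of cells grown in 96-well plates, with endpoints linearly interpolated between the two concentrations bracketing the appropriate inhibition level. The concentration for 50% growth inhibition is given as GI50. TGI: concentration producing complete growth inhibition.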
# Columns and labels:
# Experiment in all cases: NCI anticancer screen, dose series, 48 h
# MALME-3M melanoma = system: MALME-3M melanoma
# MDA-MB-435 = system: MDA-MB-435
# IGROV1 ovarian = system: IGROV1 ovarian
# RXF 393 renal = system: RXF 393 renal
# RPMI-8226 leukemia = system: RPMI-8226 leukemia
# SNB-75 CNS = system: SNB-75 CNS
# NCI-H226 lung = system: NCI-H226 lung
# BT-549 breast = system: BT-549 breast
# MDA-MB-231 breast = system: MDA-MB-231 breast
# EKVX NSCLC = system: EKVX NSCLC
# PC-3 prostate = system: PC-3 prostate
# SF-539 CNS = system: SF-539 CNS
# OVCAR-4 ovarian = system: OVCAR-4 ovarian
# SK-MEL-5 melanoma = system: SK-MEL-5 melanoma
# U251 CNS = system: U251 CNS
# UO-31 renal = system: UO-31 renal
# DU-145 prostate = system: DU-145 prostate
# K-562 leukemia = system: K-562 leukemia
# SF-268 CNS = system: SF-268 CNS
# SR leukemia = system: SR leukemia
# HOP-62 NSCLC = system: HOP-62 NSCLC
# CAKI-1 renal = system: CAKI-1 renal
# SN12C renal = system: SN12C renal
# M14 melanoma = system: M14 melanoma
# A498 renal = system: A498 renal
# HT29 colon = system: HT29 colon
# KM12 colon = system: KM12 colon
# TK-10 renal = system: TK-10 renal
# SK-OV-3 ovarian = system: SK-OV-3 ovarian
# NCI-H460 lung = system: NCI-H460 lung
# ACHN renal = system: ACHN renal
# MCF7 breast = system: MCF7 breast
# SF-295 CNS = system: SF-295 CNS
# COLO 205 colon = system: COLO 205 colon
# HCC-2998 colon = system: HCC-2998 colon
# SW-620 colon = system: SW-620 colon
# HS 578T breast = system: HS 578T breast
# HCT-116 colon = system: HCT-116 colon
# SK-MEL-2 melanoma = system: SK-MEL-2 melanoma
# OVCAR-5 ovarian = system: OVCAR-5 ovarian
# SK-MEL-28 melanoma = system: SK-MEL-28 melanoma
# T-47D breast = system: T-47D breast
# A549 NSCLC = system: A549 NSCLC
# SNB-19 CNS = system: SNB-19 CNS
# LOX IMVI melanoma = system: LOX IMVI melanoma
# HL-60(TB) leukemia = system: HL-60(TB) leukemia
# OVCAR-3 ovarian = system: OVCAR-3 ovarian
# NCI/ADR-RES ovarian = system: NCI/ADR-RES ovarian
# HOP-92 NSCLC = system: HOP-92 NSCLC
# NCI-H23 lung = system: NCI-H23 lung
# 786-0 renal = system: 786-0 renal
# NCI-H522 lung = system: NCI-H522 lung
# CCRF-CEM leukemia = system: CCRF-CEM leukemia
# UACC-62 melanoma = system: UACC-62 melanoma
# HCT-15 colon = system: HCT-15 colon
# MOLT-4 leukemia = system: MOLT-4 leukemia
# UACC-257 melanoma = system: UACC-257 melanoma
# OVCAR-8 ovarian = system: OVCAR-8 ovarian
compound,measurement,setting,value
CCC(CC)n1c(=O)c(SC2=NC3C(NN2)N(CC)C(=O)N3CC)c(C(=O)O)c2ccccc21 (configuration not stated),GI50,MALME-3M melanoma,2.66 µM
same,TGI,MALME-3M melanoma,> 100 µM
same,GI50,MDA-MB-435,2.03 µM
same,TGI,MDA-MB-435,5.01 µM
same,GI50,IGROV1 ovarian,1.5 µM
same,TGI,IGROV1 ovarian,> 100 µM
same,GI50,RXF 393 renal,0.805 µM
same,TGI,RXF 393 renal,3.28 µM
same,GI50,RPMI-8226 leukemia,3.76 µM
same,TGI,RPMI-8226 leukemia,> 100 µM
same,GI50,SNB-75 CNS,1.21 µM
same,TGI,SNB-75 CNS,> 33.4 µM
same,GI50,NCI-H226 lung,1.11 µM
same,TGI,NCI-H226 lung,5.78 µM
same,GI50,BT-549 breast,1.47 µM
same,TGI,BT-549 breast,6.72 µM
same,GI50,MDA-MB-231 breast,1.27 µM
same,TGI,MDA-MB-231 breast,> 71.9 µM
same,GI50,EKVX NSCLC,6.67 µM
same,TGI,EKVX NSCLC,> 100 µM
same,GI50,PC-3 prostate,1.25 µM
same,TGI,PC-3 prostate,> 100 µM
same,GI50,SF-539 CNS,0.811 µM
same,TGI,SF-539 CNS,2.38 µM
same,GI50,OVCAR-4 ovarian,6.56 µM
same,TGI,OVCAR-4 ovarian,> 100 µM
same,GI50,SK-MEL-5 melanoma,1.38 µM
same,TGI,SK-MEL-5 melanoma,7.64 µM
same,GI50,U251 CNS,1.13 µM
same,TGI,U251 CNS,> 100 µM
same,GI50,UO-31 renal,1.54 µM
same,TGI,UO-31 renal,> 100 µM
same,GI50,DU-145 prostate,1.3 µM
same,TGI,DU-145 prostate,> 100 µM
same,GI50,K-562 leukemia,1 µM
same,TGI,K-562 leukemia,> 100 µM
same,GI50,SF-268 CNS,2.03 µM
same,TGI,SF-268 CNS,> 100 µM
same,GI50,SR leukemia,0.805 µM
same,TGI,SR leukemia,> 49 µM
same,GI50,HOP-62 NSCLC,1.46 µM
same,TGI,HOP-62 NSCLC,> 57 µM
same,GI50,CAKI-1 renal,1.22 µM
same,TGI,CAKI-1 renal,32.3 µM
same,GI50,SN12C renal,1.31 µM
same,TGI,SN12C renal,> 100 µM
same,GI50,M14 melanoma,1.05 µM
same,TGI,M14 melanoma,> 55.2 µM
same,GI50,A498 renal,33.7 µM
same,TGI,A498 renal,> 87.2 µM
same,GI50,HT29 colon,0.909 µM
same,GI50,KM12 colon,1.2 µM
same,TGI,KM12 colon,> 100 µM
same,GI50,TK-10 renal,14.5 µM
same,TGI,TK-10 renal,> 89.8 µM
same,GI50,SK-OV-3 ovarian,1.45 µM
same,TGI,SK-OV-3 ovarian,> 94.1 µM
same,GI50,NCI-H460 lung,1.11 µM
same,TGI,NCI-H460 lung,> 54.1 µM
same,GI50,ACHN renal,1.58 µM
same,TGI,ACHN renal,> 100 µM
same,GI50,MCF7 breast,1.03 µM
same,TGI,MCF7 breast,> 100 µM
same,GI50,SF-295 CNS,1.02 µM
same,TGI,SF-295 CNS,> 46.8 µM
same,GI50,COLO 205 colon,0.771 µM
same,TGI,COLO 205 colon,1.83 µM
same,GI50,HCC-2998 colon,1.08 µM
same,GI50,SW-620 colon,1.48 µM
same,TGI,SW-620 colon,> 100 µM
same,GI50,HS 578T breast,1.22 µM
same,TGI,HS 578T breast,99.2 µM
same,GI50,HCT-116 colon,1.01 µM
same,TGI,HCT-116 colon,> 33.7 µM
same,GI50,SK-MEL-2 melanoma,1.08 µM
same,TGI,SK-MEL-2 melanoma,> 55 µM
same,GI50,OVCAR-5 ovarian,1.28 µM
same,TGI,OVCAR-5 ovarian,> 100 µM
same,GI50,SK-MEL-28 melanoma,2.2 µM
same,TGI,SK-MEL-28 melanoma,> 100 µM
same,GI50,T-47D breast,6.14 µM
same,TGI,T-47D breast,> 100 µM
same,GI50,A549 NSCLC,1.51 µM
same,TGI,A549 NSCLC,> 100 µM
same,GI50,SNB-19 CNS,1.66 µM
same,TGI,SNB-19 CNS,> 100 µM
same,GI50,LOX IMVI melanoma,1.26 µM
same,TGI,LOX IMVI melanoma,> 100 µM
same,GI50,HL-60(TB) leukemia,0.767 µM
same,TGI,HL-60(TB) leukemia,2.3 µM
same,GI50,OVCAR-3 ovarian,0.966 µM
same,TGI,OVCAR-3 ovarian,3.49 µM
same,GI50,NCI/ADR-RES ovarian,0.974 µM
same,GI50,HOP-92 NSCLC,18.3 µM
same,TGI,HOP-92 NSCLC,> 100 µM
same,GI50,NCI-H23 lung,3.59 µM
same,TGI,NCI-H23 lung,> 100 µM
same,GI50,786-0 renal,1.53 µM
same,TGI,786-0 renal,> 100 µM
same,GI50,NCI-H522 lung,0.578 µM
same,TGI,NCI-H522 lung,1.46 µM
same,GI50,CCRF-CEM leukemia,1.13 µM
same,TGI,CCRF-CEM leukemia,> 100 µM
same,GI50,UACC-62 melanoma,1.2 µM
same,TGI,UACC-62 melanoma,36.5 µM
same,GI50,HCT-15 colon,0.969 µM
same,TGI,HCT-15 colon,> 100 µM
same,GI50,MOLT-4 leukemia,1.15 µM
same,TGI,MOLT-4 leukemia,> 48.2 µM
same,GI50,UACC-257 melanoma,5.53 µM
same,TGI,UACC-257 melanoma,> 100 µM
same,GI50,OVCAR-8 ovarian,1.05 µM
